Measured values published in patent US20070179121A1, “Method of treating pediatric patients with corticosteroids” (priority 2006, published 2007).

Test: Efficacy: investigator rating of atopic dermatitis severity
Format: in vivo, human (pediatric patients)
Settings: for Patients who continued to show an improvement of clear or almost clear compared to Baseline: 2-week follow-up visit
Excerpt: Patients who met the inclusion/exclusion criteria were randomized to receive topical fluocinonide either qd or bid. Patients/guardians were instructed to apply a thin layer of the study product to all treatable areas once or twice daily for 14 days. If the areas to be treated were hairy, patients/guardians were instructed to part the hair to allow direct contact between the study product and the lesion. Patients/guardians were also instructed not to apply study product to lesions of the face, groin, perianal area, and axillae. At the end of Weeks 1, 2, and 4, patients returned to the study site in order for the investigator to perform designated evaluations, review treatment compliance and concomitant therapy, and to collect information regarding adverse events.
Efficacy was assessed by observing the change in the severity of atopic dermatitis from Baseline to Week 2 and Week 4. A disease exacerbation requiring more aggressive treatment than previously used was considered an adverse event.
The sole efficacy variable in the study was an investigator rating of skin disease severity performed at Screening, at end of treatment, and at a follow-up visit 4 weeks after the start of study treatment. Fluocinonide administered either qd or bid appears to be effective against atopic dermatitis in children aged 3 months to 17 years. In each of the 4 cohorts of this study, more than 90% of the patients in both the fluocinonide qd and bid group were rated by the investigator as showing an improvement in their disease status or as clear or almost clear of disease at the end of the treatment period. The qd regimen appeared to be as effective as the bid regimen across all age groups.

## CC(=O)OCC(=O)[C@@]12OC(C)(C)O[C@@H]1C[C@H]1[C@@H]3C[C@H](F)C4=CC(=O)C=C[C@]4(C)[C@@]3(F)[C@@H](O)C[C@@]12C [Fluocinonide, pregna-1,4-diene-3,20-dione,21-(acetyloxy)-6,9-difluoro-11-hydroxy-16, 17-[(1-methylethylidene)bis(oxy)]-,(6α., 11β,16α)-]
Each dosage group in Cohort 1 and Cohort 3
  Patients who continued to show an improvement of clear or almost clear compared to Baseline: > 80%
Each dosage group in Cohort 2
  Patients who continued to show an improvement of clear or almost clear compared to Baseline: > 70%
Each dosage group in Cohort 4
  Patients who continued to show an improvement of clear or almost clear compared to Baseline: > 90%
End of treatment period vs Baseline, Cohort 1 and Cohort 2, bid
  Patients rated as showing an improvement in disease status or as clear or almost clear of disease: > 90%
End of treatment period vs Baseline, Cohort 1 and Cohort 2, qd
  Patients rated as showing an improvement in disease status or as clear or almost clear of disease: all of the patients
End of treatment period, Cohorts 3 and 4, both qd and bid groups
  Patients rated as showing an improvement in disease status or as clear or almost clear of disease: > 90%
End of treatment period, each of the 4 cohorts, both qd and bid group
  Patients rated as showing an improvement in disease status or as clear or almost clear of disease: more than 90%
